Test [1] deals with IFN-γ, IL-4, IL-13, IL-12 (p70), and TNF-α in plasma. Nature of the test: In vivo cytokine assay (plasma, multiplex). More on the design: species or system BALB/c mice. Conditions: 0-24 hours. The method, then: FIGS. 8A-8E show graphs where the cytokine production induced by the glycolipid panel was tested in vivo. BALB/c mice were challenged with CT26 (5×10^5) i.v. followed by 50 pmoles of glycolipid or vehicle control i.p. at time 0. Mice were bled retroorbitally at 0, 3, 6, 12, and 24 hours, and the amount of IFN-γ (8A), TNF-α (8B), IL-4 (8C), IL-12 (p70) (8D), and IL-13 (8E) in plasma was determined. Each data point represents mean±SD of triplicates. […] Little cytokine production was detected following OCH and AH04-2 administration. β-ManCer induced very little cytokine production except for some IL-12 and TNF-α.
In vivo cytokine assay. The concentration of IFN-γ, IL-4, IL-13, IL-12 (p70), and TNF-α in plasma samples was determined by MILLIPLEX cytokine multiplex immunoassay kit (Millipore, Billerica, Mass.) using a Bio-Plex system (Bio-Rad, Hercules, Calif.) according to manufacturer's instructions.

In test [2] the test system is 24.9.E NKT cell hybridoma. Put plainly: Plate-bound mCD1d hybridoma stimulation assay, 24.9.E. It is filed as cell-based, mouse. As to the method: Plate-bound mCD1d hybridoma stimulation assay. Protocol was modified from that of Gumperz et al. (Gumperz, J. E., et al., Immunity, 12(2):211-221 (2000)). mCD1d dimer/Ig fusion protein (BD Biosciences) was incubated with the indicated concentrations of glycolipid in pH 5 sodium acetate buffer containing 0.01% Tween20 and 45 μg/ml saposin C (provided by Nico Tjandra and Motoshi Suzuki [both from National Heart, Lung, and Blood Institute, NIH, Bethesda, Md., USA]) overnight at 37° C. The mCD1d dimers loaded with glycolipid were loaded onto 96-well Protein G Plates (Pierce, Rockford, Ill.) and incubated for 48 hours at 37° C. The plates were washed with PBS and tissue culture media to remove anything not coated on the plates. 1×10^5 24.9. E or DN32.D3 iNKT hybridoma cells were added to each well and incubated at 37° C. and 5% CO2 for 24 hours. Supernatants were collected and analyzed for IL-2 by ELISA.

Test [3] relates to iNKT cells. Nature of the test: Upregulation of activation markers CD25 and CD69 on iNKT cells. In kind it is cell-based. Conditions: mouse splenocytes stimulated overnight; data not shown.

`CCCCCCCCCCCCCCCCCCCCCCCCCC(=O)N[C@@H](COC1OC(CO)C(O)C(O)C1O)[C@H](O)[C@H](O)CCCCCCCCCCCCCC` (stereo partly drawn) [β-ManCer, 2-hexacosanoylamino-1-O-β-mannopyranosyl-D-ribo-1,3,4-octadecanetriol]: the IFN-γ in plasma entry in test [1] (50 pmoles i.p. after CT26 i.v., FIG. 8A) was “no substantial increase”. In test [1] (50 pmoles i.p.), the IL-12 in plasma result was “only a modest increase” and the TNF-α in plasma result is “only a modest increase”. Also, in test [1] (50 pmoles i.p., FIG. 8C), the IL-4 in plasma entry was “no substantial increase”. For the same compound, the IL-13 in plasma entry in test [1] (50 pmoles i.p., FIG. 8E) is reported as “no substantial increase”. Further, the “Increase in IL-2 production over unloaded mCD1d” value in test [2] (24.9.E) amounted to 25 fold. Besides, the “IL-2 production, glycolipid-loaded mCD1d dimers” value in test [2] (24.9.E, 24 hours, no APCs, FIG. 5) is listed as “able to induce IL-2 production”. For the same compound, in test [2] (24.9.E, FIG. 5), the “IL-2 production, soluble glycolipid in the absence of CD1d” value is listed as “failed to induce IL-2 production above background”. Also, the “IL-2 production, difference (less) versus α-GalCer” value in test [2] (stated for the 24.9.E and DN32.D3 hybridomas together) was 10- to 50 fold. In addition, the “Upregulation of CD25 and CD69 on iNKT cells” value in test [3] is “induced upregulation”.

Source of the values: patent US9517243B2, “Beta-mannosylceramide and stimulation of NKT cell anti-tumor immunity” (The United States of America, as represented by the …, priority 2010, dated 2016).
